Values of other authors in PMC7791840, “The R-enantiomer of ketorolac reduces ovarian cancer tumor burden in vivo” (BMC Cancer, 2021).
pIC50: −log10 of the molar value.

Tests used:
Rac1 = test system: Rac1; set-up: method as in earlier work; settings: cell-based assays, ovarian tumor cells; ref 23 (R-ketorolac), 27 (S-ketorolac); cited from earlier work
Cdc42 = test system: Cdc42; set-up: method as in earlier work; settings: cell-based assays, ovarian tumor cells; ref 23 (R-ketorolac), 27 (S-ketorolac); cited from earlier work
COX-1 = test system: COX-1; set-up: method as in PMID 26558612, PMID 10027870; settings: cited from earlier work
COX-2 = test system: COX-2; set-up: method as in PMID 26558612, PMID 10027870; settings: cited from earlier work
[1] = set-up: method as in PMID 8809637; settings: mice; cited from earlier work
[2] = test system: HEY8 ovarian cancer xenografts; set-up: method as in PMID 25595279; settings: cited from earlier work

| Structure (SMILES) | pIC50 (Rac1) | pIC50 (Cdc42) | pIC50 (COX-1) | pIC50 (COX-2) | Conversion of S-enantiomer to R-enantiomer [1] | Number of tumor nodules [2] | Tumor weight [2] |
| --- | --- | --- | --- | --- | --- | --- | --- |
| O=C(c1ccccc1)c1ccc2n1CC[C@@H]2C(=O)O [S-ketorolac] | < 4.00 | < 4.00 | 6.34 | 5.84 | significantly converted to the R-enantiomer in mice | – | – |
| O=P(O)(O)C(O)(Cn1ccnc1)P(=O)(O)O [zoledronic acid, Zoledronic acid] | – | – | – | – | – | decreased | decreased |
